Drawing on patent publication US20090099195A1 (ASTRAZENECA AB, priority 2007, published 2009), this text covers IC50 for 21 compounds.

The IC50 is the concentration at which inhibition is half-maximal.

For the test, the target named is T1, hP2X3 (human Purinergic P2X receptors subtype 3), clone B (Homo sapiens, UniProt P56373).
T1 sequence (P56373 1-397): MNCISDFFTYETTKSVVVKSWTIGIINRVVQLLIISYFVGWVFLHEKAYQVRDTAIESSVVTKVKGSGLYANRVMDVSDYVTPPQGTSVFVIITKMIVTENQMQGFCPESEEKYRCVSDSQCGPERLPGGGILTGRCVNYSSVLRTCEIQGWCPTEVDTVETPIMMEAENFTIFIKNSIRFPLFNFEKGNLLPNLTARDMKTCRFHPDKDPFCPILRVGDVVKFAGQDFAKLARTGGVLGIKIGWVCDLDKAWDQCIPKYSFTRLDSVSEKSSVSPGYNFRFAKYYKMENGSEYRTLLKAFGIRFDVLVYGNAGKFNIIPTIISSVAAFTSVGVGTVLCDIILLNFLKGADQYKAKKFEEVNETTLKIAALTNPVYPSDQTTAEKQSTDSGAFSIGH
Nature of the test: hP2X3 FLIPR calcium (Fluo-4) antagonist assay, clone B. As to conditions: Human P2X3 FLIPR Clone B IC50 (nM), RLE cells expressing hP2X3 clone B (NM_002559); agonist 500 nM α,β-methylene-ATP.
Regarding `CC(C)N1Cc2c(NC(C)(C)Cc3ccc(Cl)cc3)nc(NCCN3CCCC3=O)nc2C1=O` [Example 70, 4-{[2-(4-chlorophenyl)-1,1-dimethylethyl]amino}-6-isopropyl-2-{[2-(2-oxopyrrolidin-1-yl)ethyl]amino}-5,6-dihydro-7H-pyrrolo[3,4-d]pyrimidin-7-one], the IC50 worked out at 780 nM.
For the compound `CC(=O)N1CCN(c2nc(NCC3(c4ccc(Cl)cc4)CCCC3)c3c(n2)C(=O)N(C(C)C)C3)CC1` [Example 113, 2-(4-acetylpiperazin-1-yl)-4-({[1-(4-chlorophenyl)cyclopentyl]methyl}amino)-6-isopropyl-5,6-dihydro-7H-pyrrolo[3,4-d]pyrimidin-7-one], the IC50 came to 460 nM.
For the compound `CC(C)N1Cc2c(NCc3cnc4ccccc4c3)nc(N3CCOCC3)nc2C1=O` [Example 211, 6-isopropyl-2-morpholino-4-(quinolin-3-ylmethylamino)-5H-pyrrolo[3,4-d]pyrimidin-7(6H)-one], the IC50 came to 5100 nM.
`CC(C)N1Cc2c(NC(c3ccccc3)c3ccc(Cl)cc3)nc(NCCN(C)C)nc2C1=O` (stereo not drawn) [Example 9, 4-{[(4-chlorophenyl)(phenyl)methyl]amino}-2-{[2-(dimethylamino)ethyl]amino}-6-isopropyl-5,6-dihydro-7H-pyrrolo[3,4-d]pyrimidin-7-one]: the 50% inhibitory concentration (IC50) was determined as 91 nM.
For `CC(=O)N1CCN(c2nc3c(c(N4CCCC4Cc4ccc(Cl)cc4)n2)CN(C(C)C)C3=O)CC1` (stereo not drawn) [Example 50, 2-(4-acetylpiperazin-1-yl)-4-[2-(4-chlorobenzyl)pyrrolidin-1-yl]-6-isopropyl-5,6-dihydro-7H-pyrrolo[3,4-d]pyrimidin-7-one], the IC50 was found to be 150 nM.
The figure for `COc1cccc(CC2CCCN2c2nc(N3CCN(C(C)=O)CC3)nc3c2CN(C(C)C)C3=O)c1` (stereo not drawn) [Example 291, 2-(4-acetylpiperazin-1-yl)-6-isopropyl-4-[2-[(3-methoxyphenyl)methyl]pyrrolidin-1-yl]-5H-pyrrolo[3,4-d]pyrimidin-7-one] is 490 nM; for `CC1CN(c2nc(NC(c3ccccc3)c3ccccc3)c3c(n2)C(=O)N(C(C)C)C3)CC(C)O1` (stereo not drawn) [Example 86, 4-(Benzhydryl-amino)-2-(2,6-dimethyl-morpholin-4-yl)-6-isopropyl-5,6-dihydro-pyrrolo[3,4-d]pyrimidin-7-one] it is 280 nM.
For `CC(=O)N1CCN(c2nc3c(c(N4CCCC4Cc4ccccc4Cl)n2)CN(C(C)C)C3=O)CC1` (stereo not drawn) [Example 46, 2-(4-acetylpiperazin-1-yl)-4-[2-(2-chlorobenzyl)pyrrolidin-1-yl]-6-isopropyl-5,6-dihydro-7H-pyrrolo[3,4-d]pyrimidin-7-one], the IC50 was determined as 2300 nM.
The figure for `CC(C)N1Cc2c(NCc3cnc4ccccc4c3)nc(N3CCN4C(=O)CCC4C3)nc2C1=O` (stereo not drawn) [Example 135, 6-Isopropyl-2-(6-oxohexahydropyrrolo[1,2-a]pyrazin-2(1H)-yl)-4-(quinolin-3-ylmethylamino)-5H-pyrrolo[3,4-d]pyrimidin-7(6M)-one] is 870 nM.
Regarding `CC(C)C(=O)N1CCN(c2nc(NC(c3ccccc3)c3ccccc3)c3c(n2)C(=O)N(C(C)C)C3)CC1` [Example 80, 4-(Benzhydryl-amino)-2-(4-isobutyryl-piperazin-1-yl)-6-isopropyl-5,6-dihydro-pyrrolo[3,4-d]pyrimidin-7-one], the IC50 came to 190 nM.
The figure for `CC(=O)N1CCN(c2nc3c(c(N4CCC[C@H]4Cc4ccccc4)n2)CN(C(C)C)C3=O)CC1` [Example 117, 2-(4-acetylpiperazin-1-yl)-4-[(2S)-2-benzylpyrrolidin-1-yl]-6-isopropyl-5,6-dihydro-7H-pyrrolo[3,4-d]pyrimidin-7-one] is 3700 nM.
The figure for `CC(C)N1Cc2c(NC(c3ccccc3)c3ccc(Cl)cc3)nc(N3CC4CC3CN4C)nc2C1=O` (stereo not drawn) [Example 20, 4-{[(4-chlorophenyl)(phenyl)methyl]amino}-6-isopropyl-2-(5-methyl-2,5-diazabicyclo[2.2.1]hept-2-yl)-5,6-dihydro-7H-pyrrolo[3,4-d]pyrimidin-7-one] is 100 nM; for `CC(=O)N1CCN(c2nc(NCc3n[nH]c4c3CCC4)c3c(n2)C(=O)N(C(C)C)C3)CC1` [Example 151, 4-(4-acetylpiperazin-1-yl)-2-(6,7-diazabicyclo[3.3.0]octa-7,9-dien-8-ylmethylamino)-8-propan-2-yl-3,5,8-triazabicyclo[4.3.0]nona-1,3,5-trien-7-one] it is 940 nM.
As for `CC(C)N1Cc2c(nc(NCCN(C)C)nc2N2CCCC2Cc2ccc(Cl)cc2)C1=O` (stereo not drawn) [Example 57, 4-[2-(4-chlorobenzyl)pyrrolidin-1-yl]-2-{[2-(dimethylamino)ethyl]amino}-6-isopropyl-5,6-dihydro-7H-pyrrolo[3,4-d]pyrimidin-7-one], the IC50 is 8500 nM.
The figure for `CC(=O)N1CCN(c2nc(NCc3nc(C4CCCC4)no3)c3c(n2)C(=O)N(C(C)C)C3)CC1` [Example 276, 4-(4-acetylpiperazin-1-yl)-2-[(3-cyclopentyl-1,2,4-oxadiazol-5-yl)methylamino]-8-propan-2-yl-3,5,8-triazabicyclo[4.3.0]nona-1,3,5-trien-7-one] is 590 nM.
The figure for `CC(=O)N1CCN(c2nc(N[C@H](C)c3ccc(OC(C)C)cc3)c3c(n2)C(=O)N(C(C)C)C3)CC1` [Example 176, (R)-2-(4-acetylpiperazin-1-yl)-4-(1-(4-isopropoxyphenyl)ethylamino)-6-isopropyl-5H-pyrrolo[3,4-d]pyrimidin-7(6H)-one] is 80 nM.
The figure for `CC(=O)N1CCN(c2nc3c(c(N4CCC[C@@H]4C(=O)N4CCc5ccccc54)n2)CN(C(C)C)C3=O)CC1` [Example 279, 4-(4-acetylpiperazin-1-yl)-2-[(2R)-2-(2,3-dihydroindole-1-carbonyl)pyrrolidin-1-yl]-8-propan-2-yl-3,5,8-triazabicyclo[4.3.0]nona-1,3,5-trien-7-one] is 1800 nM; for `CC(=O)N1CCN(c2nc(N[C@@H](C)c3ccc(OC(CF)CF)cc3)c3c(n2)C(=O)N(C(C)C)C3)CC1` [Example 251, (S)-2-(4-acetylpiperazin-1-yl)-4-(1-(4-(1,3-difluoropropan-2-yloxy)phenyl)ethylamino)-6-isopropyl-5H-pyrrolo[3,4-d]pyrimidin-7(6H)-one] it is 5200 nM; for `CC(=O)N1CCN(c2nc(NC3CCCc4ccccc43)c3c(n2)C(=O)N(C(C)C)C3)CC1` (stereo not drawn) [Example 1, 2-(4-acetylpiperazin-1-yl)-6-isopropyl-4-(1,2,3,4-tetrahydronaphthalen-1-ylamino)-5,6-dihydro-7H-pyrrolo[3,4-d]pyrimidin-7-one] it is 4800 nM.
On to `CC(=O)N1CCN(c2nc3c(c(N(Cc4ccccc4)Cc4ccccc4)n2)CN(C(C)C)C3=O)CC1` [Example 95, 2-(4-Acetyl-piperazin-1-yl)-4-dibenzylamino-6-isopropyl-5,6-dihydro-pyrrolo[3,4-d]-pyrimidin-7-one], for which the IC50 was determined as 430 nM.
The figure for `CC(=O)N1CCN(c2nc3c(c(N4CCCC4Cc4cccc(Cl)c4)n2)CN(C(C)C)C3=O)CC1` (stereo not drawn) [Example 48, 2-(4-acetylpiperazin-1-yl)-4-[2-(3-chlorobenzyl)pyrrolidin-1-yl]-6-isopropyl-5,6-dihydro-7H-pyrrolo[3,4-d]pyrimidin-7-one] is 300 nM.
